Source: patent US20020026053A1, “Novel 3-(substituted) -2- indolinones compounds and use thereof as inhibitors of protein kinase activity” (priority 1997, published 2002)

Legend:
PDGF-R = PDGF-R Assay (cellular ELISA, U1242 cells); format: cell-based; parameters: concentration or dose not given beside the values
Procedure, shortened: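 Cellular ELISA for receptor autophosphorylation: after 2 hr test-compound treatment of serum-free U1242 cells at 37°C, ligand is added for 5–10 min, cells are lysed (HNTG) and receptor captured by specific antibody. Anti-phosphotyrosine plus secondary antibody with ABTS colour read at 410/630 nm, compared with compound-free control cells.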

EGFR = molecular target: T1, EGFR (Homo sapiens, UniProt P00533); assay: Biochemical EGFR Assay; parameters: concentration or dose not given beside the values
T1 construct: endogenous in cells; host or cells: A431 cells (lysate, captured with SUMO1 anti-EGFR antibody)
Procedure, shortened: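 Readout is ABTS absorbance at 410 nm after anti-phosphotyrosine and HRP-antibody detection of EGFR autophosphorylation. The kinase was immunocaptured from A431 lysate, exposed 30 min to test compound diluted 1:10 in TBS, then phosphorylated for 5 min with ATP/MnCl2 before an EDTA stop.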

T1 sequence (P00533 25-1210): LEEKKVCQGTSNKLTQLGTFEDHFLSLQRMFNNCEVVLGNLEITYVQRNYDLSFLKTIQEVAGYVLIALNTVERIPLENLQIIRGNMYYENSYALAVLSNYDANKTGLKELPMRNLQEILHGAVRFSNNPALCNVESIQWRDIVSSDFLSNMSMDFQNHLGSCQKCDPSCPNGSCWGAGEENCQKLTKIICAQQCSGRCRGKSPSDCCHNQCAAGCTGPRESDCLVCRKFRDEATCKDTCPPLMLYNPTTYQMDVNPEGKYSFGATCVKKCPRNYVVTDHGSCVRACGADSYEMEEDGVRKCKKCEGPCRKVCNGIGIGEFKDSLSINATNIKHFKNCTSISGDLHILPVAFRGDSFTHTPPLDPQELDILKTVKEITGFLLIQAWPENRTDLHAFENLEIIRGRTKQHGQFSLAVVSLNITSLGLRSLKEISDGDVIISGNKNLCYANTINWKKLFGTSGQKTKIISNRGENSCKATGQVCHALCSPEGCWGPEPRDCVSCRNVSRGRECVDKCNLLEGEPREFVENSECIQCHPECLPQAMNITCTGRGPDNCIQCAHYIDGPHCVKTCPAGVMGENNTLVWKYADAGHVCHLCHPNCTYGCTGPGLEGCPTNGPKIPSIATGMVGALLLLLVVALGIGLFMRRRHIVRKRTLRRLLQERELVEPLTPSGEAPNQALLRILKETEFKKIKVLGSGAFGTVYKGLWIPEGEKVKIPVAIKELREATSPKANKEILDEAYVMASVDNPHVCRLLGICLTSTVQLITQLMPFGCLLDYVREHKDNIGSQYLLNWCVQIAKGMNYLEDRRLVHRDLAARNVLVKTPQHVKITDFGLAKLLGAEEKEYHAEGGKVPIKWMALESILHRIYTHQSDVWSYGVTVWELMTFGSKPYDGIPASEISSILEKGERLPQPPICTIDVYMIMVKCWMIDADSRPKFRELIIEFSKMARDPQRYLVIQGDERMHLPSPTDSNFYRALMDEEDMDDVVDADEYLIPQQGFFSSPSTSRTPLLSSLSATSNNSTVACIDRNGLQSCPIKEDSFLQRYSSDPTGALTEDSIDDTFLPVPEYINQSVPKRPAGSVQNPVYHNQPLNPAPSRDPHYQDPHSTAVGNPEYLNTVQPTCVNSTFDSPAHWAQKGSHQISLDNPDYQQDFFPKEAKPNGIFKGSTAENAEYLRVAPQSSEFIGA

SMILES	PDGF Kinase % Inhibition (P.119) (PDGF-R) [%]	Biochem EGFR % Inhibition (P.167) (EGFR) [%]
N#Cc1ccccc1C=C1C(=O)Nc2ccc(S(=O)(=O)Nc3ccc(C(F)(F)F)cc3)cc21 [10735/E07]	57.1	27.4
O=C1Nc2ccc(S(=O)(=O)Nc3ccc(C(F)(F)F)cc3)cc2C1=Cc1c(F)cccc1F [10735/E08]	25.4	10.2
O=C1Nc2ccc(S(=O)(=O)Nc3ccc(C(F)(F)F)cc3)cc2C1=Cc1cccc2ccccc12 [10735/E09]	37.1	−3.9
O=C1Nc2ccc(S(=O)(=O)Nc3ccc(C(F)(F)F)cc3)cc2C1=Cc1ccc(Cl)cc1Cl [10735/E10]	27.1	19.1
O=C1Nc2ccc(S(=O)(=O)Nc3ccc(C(F)(F)F)cc3)cc2C1=Cc1ccc(-c2ccccc2)cc1 [10735/E11]	11.9	10.1
Cc1ccccc1C=C1C(=O)Nc2ccc(S(=O)(=O)N3CCOCC3)cc21 [10735/F02]	6.0	19.8
O=C1Nc2ccc(S(=O)(=O)N3CCOCC3)cc2C1=Cc1ccc(F)c(F)c1 [10735/F03]	7.8	19.1
O=C1Nc2ccc(S(=O)(=O)N3CCOCC3)cc2C1=Cc1cc(F)cc(F)c1 [10735/F04]	40.5	10.6
O=C1Nc2ccc(S(=O)(=O)N3CCOCC3)cc2C1=Cc1cccc(C(F)(F)F)c1 [10735/F05]	37.1	5.5
O=C1Nc2ccc(S(=O)(=O)N3CCOCC3)cc2C1=Cc1cc(C(F)(F)F)cc(C(F)(F)F)c1 [10735/F06]	20.9	13.0
N#Cc1ccccc1C=C1C(=O)Nc2ccc(S(=O)(=O)N3CCOCC3)cc21 [10735/F07]	19.2	28.9
O=C1Nc2ccc(S(=O)(=O)N3CCOCC3)cc2C1=Cc1c(F)cccc1F [10735/F08]	13.3	9.4
O=C1Nc2ccc(S(=O)(=O)N3CCOCC3)cc2C1=Cc1cccc2ccccc12 [10735/F09]	19.8	0.0
O=C1Nc2ccc(S(=O)(=O)N3CCOCC3)cc2C1=Cc1ccc(Cl)cc1Cl [10735/F10]	13.3	15.7
O=C1Nc2ccc(S(=O)(=O)N3CCOCC3)cc2C1=Cc1ccc(-c2ccccc2)cc1 [10735/F11]	4.0	14.8
Cc1ccccc1C=C1C(=O)Nc2ccc(CCCl)cc21 [10735/G02]	7.1	23.7
O=C1Nc2ccc(CCCl)cc2C1=Cc1ccc(F)c(F)c1 [10735/G03]	6.4	30.3
O=C1Nc2ccc(CCCl)cc2C1=Cc1cc(F)cc(F)c1 [10735/G04]	11.6	22.8
O=C1Nc2ccc(CCCl)cc2C1=Cc1cccc(C(F)(F)F)c1 [10735/G05]	13.6	16.7
O=C1Nc2ccc(CCCl)cc2C1=Cc1cc(C(F)(F)F)cc(C(F)(F)F)c1 [10735/G06]	12.9	2.1
